Values quoted from earlier work in patent US20260014099A1, “SELF-PRESERVING TOPICAL PHARMACEUTICAL COMPOSITIONS COMPRISING DIETHYLENE GLYCOL MONOETHYL ETHER” (priority 2022, published 2026).

In the case of `NC(N)=O` [urea], the “Water Solubility” value is given as 1,190,000 mg/liter.
In the case of ivermectin, the “Water Solubility” value is given as 4 mg/L.
